The text below walks through data of PMC9146474, “3-(((1S,3S)-3-((R)-Hydroxy(4-(trifluoromethyl)phenyl)methyl)-4-oxocyclohexyl)methyl)pentane-2,4-dione: Design and Synthesis of New Stereopure Multi-Target Antidiabetic Agent” (Molecules, 2022).

Data set [1] has as its target T1, protein tyrosine phosphatase 1B (PTP-1B) (Homo sapiens, UniProt P18031).
T1 sequence (P18031 1-435): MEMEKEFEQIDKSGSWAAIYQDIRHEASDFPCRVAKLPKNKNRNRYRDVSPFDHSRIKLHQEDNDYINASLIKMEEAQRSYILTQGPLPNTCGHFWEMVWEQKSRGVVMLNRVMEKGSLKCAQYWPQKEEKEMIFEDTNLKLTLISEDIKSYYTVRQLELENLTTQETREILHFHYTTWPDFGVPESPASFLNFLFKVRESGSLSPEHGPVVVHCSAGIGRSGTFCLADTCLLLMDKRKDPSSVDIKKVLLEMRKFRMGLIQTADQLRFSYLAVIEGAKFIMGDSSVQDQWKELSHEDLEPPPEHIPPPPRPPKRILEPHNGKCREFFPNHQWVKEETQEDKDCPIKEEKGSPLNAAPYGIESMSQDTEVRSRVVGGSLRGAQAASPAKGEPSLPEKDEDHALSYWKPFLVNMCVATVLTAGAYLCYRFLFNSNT
The data set is described as follows: Protein tyrosine phosphatase 1B inhibition. Format: biochemical. As to conditions: for inhibition at 31.25 µM: 31.25 μM/mL; for inhibition at 31.25 µM / inhibition at 62.5 µM / inhibition at 125 µM / inhibition at 250 µM: read-out: PTP-1B Percent Inhibition (converted); for inhibition at 62.5 µM: 62.5 μM/mL; for inhibition at 125 µM: 125 μM/mL; for inhibition at 250 µM: 250 μM/mL; for inhibition at 500 µM: 500 μM/mL. As to the method:
A buffer solution with pH 7 of 3,3-dimethyl glutarate was used. […] All the solutions were incubated at 27 °C for 40 min. The absorbances of the solutions were recorded at 405 nm. The observations were repeated three times. The percent inhibitions at each concentration and the IC50 values were calculated according to the standard formula.

The next data set concerns the target α-amylase. The data set is described as follows: In-vitro α-amylase inhibition. Format: biochemical. As to the method:
The potential of stereopure S,S,R-5 against the α-amylase was also determined as per the protocols. The enzyme solution was prepared in the phosphate buffer and was mixed with different concentrations of the compound to allow the reaction. All the solutions were incubated as per the method. Dinitrosalicylic acid was added to the compound and standard solutions. The respective solutions were heated in water baths for a few minutes. The absorbances of the solutions were recorded at 656 nm. The observations were repeated three times. The percent inhibitions at each concentration and the IC50 values were calculated according to the standard formula [50].

A short description of data set [2]: DPPH free radical scavenging assay (antioxidant assay). As to the method: To supplement the role of free radicals in diabetes, the free radical scavenging potential of compound S,S,R-5 was also determined as per the standard method. Different concentrations of the stereopure compound were prepared and DPPH solution in methanol (0.004%) were added to it. The solutions were incubated for half an hour. The absorbances of the solutions were recorded at 517 nm. The observations were repeated three times. The percent inhibitions at each concentration and the IC50 values were calculated according to the standard formula [52].
For orientation: Loss of DPPH colour is used to gauge radical scavenging.

The next data set deals with albino mice. The note with it: mouse, in vivo. As to the method:
We also tested the toxicity profile of our compound S,S,R-5 by using the simple acute toxicity test in experimental albino mice. The mice were acquired and used in the animal house of our university as per the standard guidelines of the departmental ethical committee. As per the standard procedure, we gave various concentrations of compound S,S,R-5 to albino mice and observed them for the next 72 h.

The next data set addresses α-glucosidase (Saccharomyces cerevisiae, UniProt P53341). Format: biochemical. As to the method:
The α-glucosidase inhibitory activity on the S,S,R-5 was performed as per the reported protocols. […] The α-glucosidase solution (0.5 units/mL) was prepared in phosphate buffer (0.1 M, 6.90 pH). p-Nitrophenyl-α-D-glucopyranoside (5 mM) was added as substrate solution to the buffer solution. Different concentrations of the compound, i.e., 500, 250, 125, 62.5, and 31.25 μM were prepared. The enzyme solutions were mixed with the compound’s solution and were incubated for 15 min at 37 °C. To these solutions were added the pre-prepared substrate solution and the repetition of incubation. The final reaction was completed with the addition of sodium carbonate solution (0.2 M, 80 μL). The combined solution excluding the α-glucosidase was used as a blank solution. The absorbances of the solutions were recorded at 405 nm. The observations were repeated three times. The percent inhibitions at each concentration and the IC50 values were calculated according to the standard formula [48].

The mark [3] stands for this setting: 500 μM/mL, listed as minor diastereomer (S,S,R-5).

Structures are written as SMILES.

Sequence of α-glucosidase (P53341 whole entry): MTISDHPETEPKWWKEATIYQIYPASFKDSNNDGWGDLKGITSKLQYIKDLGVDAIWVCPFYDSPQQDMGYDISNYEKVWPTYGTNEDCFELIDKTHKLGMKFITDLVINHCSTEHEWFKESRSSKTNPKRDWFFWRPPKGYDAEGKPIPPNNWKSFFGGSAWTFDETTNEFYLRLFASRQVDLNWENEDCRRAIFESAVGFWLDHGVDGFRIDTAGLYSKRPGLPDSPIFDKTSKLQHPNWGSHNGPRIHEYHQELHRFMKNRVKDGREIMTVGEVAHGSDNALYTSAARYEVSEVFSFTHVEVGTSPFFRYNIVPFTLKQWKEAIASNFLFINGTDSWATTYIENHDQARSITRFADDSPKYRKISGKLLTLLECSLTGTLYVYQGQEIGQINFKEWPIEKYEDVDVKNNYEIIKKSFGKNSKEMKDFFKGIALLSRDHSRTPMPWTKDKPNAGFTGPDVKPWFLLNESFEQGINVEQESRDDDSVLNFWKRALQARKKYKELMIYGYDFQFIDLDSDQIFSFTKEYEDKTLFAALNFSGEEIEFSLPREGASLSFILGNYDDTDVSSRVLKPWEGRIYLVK

Take `C[C@H]1[C@H](C)CC[C@]2(C(=O)O)CC[C@]3(C)C(=CC[C@@H]4[C@@]5(C)CC[C@H](O)C(C)(C)[C@@H]5CC[C@]43C)[C@H]12` [Ursolic acid, reference compound]: in data set [1], the inhibition (as a rule, how much of the control response was suppressed) at 31.25 µM was 76%; the inhibition at 62.5 µM is 78.3%; the inhibition at 125 µM was 82.3%; the inhibition at 250 µM was 87.2%. For the same compound, the inhibition at 500 µM in data set [1] came out at 90.83 ± 0.47%.

On to `CC(=O)C(C[C@H]1CCC(=O)[C@H]([C@@H](O)c2ccc(C(F)(F)F)cc2)C1)C(C)=O` [S,S,R-5, 3-(((1S,3S)-3-((R)-hydroxy(4-(trifluoromethyl)phenyl)methyl)-4-oxocyclohexyl)methyl)pentane-2,4-dione], for which the IC50 (as a rule, the concentration needed to halve the response being measured) at α-amylase was 4580 ± 140 nM; in data set [1] it was 910 ± 100 nM; in data set [2] it was 2360 ± 100 nM. The “α-Amylase Percent Inhibition” value turned out to be 58.47 ± 0.56% with α-amylase (31.25 μM/mL), 62.28 ± 0.57% in the data set on α-amylase (62.5 μM/mL), 68.90 ± 0.96% in the data set on α-amylase (125 μM/mL) and 73.08 ± 0.47% with α-amylase (250 μM/mL). In data set [1], the inhibition at 31.25 µM is 73.7%. The inhibition at 62.5 µM in data set [1] was 76.2%. Besides, the inhibition at 125 µM in data set [1] was 79.6%. For the same compound, the inhibition at 250 µM in data set [1] is 84.4%. For the same compound, the “DPPH Percent Inhibition” value turned out to be 71.90 ± 0.45% in data set [2] (31.25 μM/mL), 76.00 ± 0.30% in data set [2] (62.5 μM/mL), 81.90 ± 0.60% in data set [2] (125 μM/mL) and 87.45 ± 0.90% in data set [2] (250 μM/mL). In the data set with albino mice, the “Acute toxicity: behavioral changes or lethality” value is reported as “no unwanted behavioral changes or lethality”.

`CC(=O)C(CC1CCC(=O)C(C(O)c2ccc(C(F)(F)F)cc2)C1)C(C)=O` [minor (S,S,R-5)]: the “α-Amylase % Inhibition” value with α-amylase (setting [3]) is 72.65%. Moreover, in data set [1], testing at 500 µM gave an inhibition of 65.4%. In addition, the “DPPH % Inhibition” value in data set [2] (setting [3]) is on record as 70.21%.

As to `C[C@H]1O[C@H](O[C@H]2[C@H](O)[C@@H](O)[C@@H](O[C@H]3[C@H](O)[C@@H](O)C(O)O[C@@H]3CO)O[C@@H]2CO)[C@H](O)[C@@H](O)[C@@H]1N[C@H]1C=C(CO)[C@@H](O)[C@H](O)[C@H]1O` (some centres unmarked) [Acarbose], at α-glucosidase, the “α-Glucosidase % Inhibition” value is 95.20 ± 0.15 91.17 ± 0.53 86.98 ± 0.85 81.20 ± 0.65 77.80 ± 0.37% and the “α-Glucosidase Percent Inhibition” value was 95.20 ± 0.15 91.17 ± 0.53 86.98 ± 0.85 81.20 ± 0.65 77.80 ± 0.37%.
